Literature values in US12103919B2, “3-(5-oxy)-1-oxoisoindolin-2-yl)piperidine-2,6-dione derivatives and uses thereof” (NOVARTIS AG, priority 2021, dated 2024).

How the values were obtained:
HbF [1] = details: human primary erythroid cells; cited from earlier work
HbF [2] = details: cited from earlier work

Compound | HbF induction ex vivo (HbF [1]) | HbF induction in vivo (HbF [2])
Nc1cccc2c1CN(C1CCC(=O)NC1=O)C2=O (stereo not shown) [lenalidomide] | induce HbF ex vivo | induce HbF
Nc1cccc2c1C(=O)N(C1CCC(=O)NC1=O)C2=O (stereo not shown) [pomalidomide] | induce HbF ex vivo | induce HbF
